# Molecular target: B41 SOSIP.664 pseudotype parent; B41 (9032_08_A1) HIV-1 Env on pseudotyped virus (Human immunodeficiency virus 1, UniProt B3UES2)
# Assay: TZM-bl pseudovirus neutralization, luciferase
# Type: cell-based
# Settings: average, 1 h preincubation at 37°C, 1% DMSO, 48 h, entry read-out
compound,measurement,value
Cc1ccc(-c2ccc(NC(=O)N3CCC4(CCO4)CC3)cc2)cc1 [GO52],IC50,1.6 µM
